How the values were obtained:
[1] = tested on: HS-PSS; experiment: relative IC50 (inflection point of fitted dose-response curve, CellTox-Green cytotoxicity, 72 h; top asymptote may be below 50%); higher = less potent
Method in brief: (§1)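 MPNST cell lines and primary human Schwann cells were incubated 72 h at 37 °C in 384-well plates holding five 10-fold compound dilutions. CellTox-Green was added before seeding at a final 1:1000 dilution and reported fluorescence from DNA released by disrupted cells. Signals were scaled to vehicle and positive-control wells, and cultures failing plate quality control were dropped. Drug sensitivity score and relative IC50 come from four-parameter logistic fits, with IC50 censored at the top concentration.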

[2] = tested on: S1507-2; experiment: as above
Method in brief: as §1

[3] = tested on: HSC1; experiment: as above
Method in brief: as §1

[4] = tested on: HSC2; experiment: as above
Method in brief: as §1

[5] = tested on: STS26T; experiment: as above
Method in brief: as §1

[6] = tested on: ST8814; experiment: as above
Method in brief: as §1

[7] = tested on: HS-PSS; experiment: relative IC50 (inflection point of fitted dose-response curve, CellTiter-Glo viability, 72 h; top asymptote may be below 50% inhibition); higher = less potent
Method in brief: (§2)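 Viability was scored by CellTiter-Glo ATP luminescence, scaled from vehicle to positive-control wells, with duplicates averaged where present. The cells, MPNST lines and primary human Schwann cells at 750–1000 per well, sat 72 h at 37 °C, 5% CO2, in 384-well plates preprinted with each compound at five concentrations in 10-fold steps. Four-parameter logistic fits were run on the data. These fits give drug sensitivity score and relative IC50 censored at the top concentration, and percent inhibition is reported at the top concentration.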

[8] = tested on: S1507-2; experiment: as above
Method in brief: as §2

[9] = tested on: HSC1; experiment: as above
Method in brief: as §2

[10] = tested on: S462; experiment: as above
Method in brief: as §2

[11] = tested on: HSC2; experiment: as above
Method in brief: as §2

[12] = tested on: YST-1; experiment: as above
Method in brief: as §2

[13] = tested on: STS26T; experiment: as above
Method in brief: as §2

[14] = tested on: HS-Sch-2; experiment: as above
Method in brief: as §2

[15] = tested on: ST8814; experiment: as above
Method in brief: as §2

SMILES | relative IC50 [1] [µM] | relative IC50 [2] [µM] | relative IC50 [3] [µM] | relative IC50 [4] [µM] | relative IC50 [5] [µM] | relative IC50 [6] [µM] | relative IC50 [7] [µM] | relative IC50 [8] [µM] | relative IC50 [9] [µM] | relative IC50 [10] [µM] | relative IC50 [11] [µM] | relative IC50 [12] [µM] | relative IC50 [13] [µM] | relative IC50 [14] [µM] | relative IC50 [15] [µM]
c1ccc([C@H]2CN3CCSC3=N2)cc1 [Levamisole] | > 10 | > 10 | > 10 | > 10 | > 10 | > 10 | > 10 | > 10 | > 10 | > 10 | > 10 | > 10 | > 10 | > 10 | > 10
COc1ccc(S(=O)(=O)Nc2cccnc2Nc2ccc(O)cc2)cc1 [ABT-751] | > 10 | 0.355 | 0.831 | 0.304 | 0.246 | 0.536 | 3.01 | 0.325 | 0.468 | 0.351 | 0.476 | 0.814 | 0.367 | 0.437 | 0.353
CCCc1cc(C)[nH]c(=O)c1CNC(=O)c1cc(-c2ccnc(N3CCN(C)CC3)c2)cc2c1cnn2C(C)C [GSK343] | 3.09 | 2.31 | > 10 | > 10 | 2.66 | 3.1 | 2.97 | 2.69 | 1.52 | 3.25 | 1.81 | 4.35 | 3.82 | 3.81 | 3.2
COc1c(C)cnc(Cn2cnc3c(Cl)nc(N)nc32)c1C [BIIB021] | 0.396 | 0.484 | 0.217 | 0.231 | 0.316 | 0.587 | 0.424 | 0.268 | 0.395 | 0.186 | 0.297 | 0.328 | 0.247 | 0.0951 | 0.28
CC(C)(C#N)c1cc(Cn2cncn2)cc(C(C)(C)C#N)c1 [Anastrozole] | > 10 | > 10 | > 10 | > 10 | > 10 | > 10 | > 10 | > 10 | > 10 | > 10 | > 10 | > 10 | > 10 | > 10 | > 10
CCc1c2c(nc3ccc(OC(=O)N4CCC(N5CCCCC5)CC4)cc13)-c1cc3c(c(=O)n1C2)COC(=O)[C@]3(O)CC [Irinotecan] | 2.13 | 3.67 | 2.66 | 2.24 | 2.36 | 1.94 | 2.61 | 1.58 | 0.406 | 1.31 | 0.823 | 0.359 | 1.79 | 1.34 | 1.21
Cc1[nH]c2ccccc2c1CCNCc1ccc(/C=C/C(=O)NO)cc1 [Panobinostat] | 0.0891 | 0.0309 | 0.125 | 0.122 | 0.0649 | 0.0366 | 0.0548 | 0.0112 | 0.0208 | 0.0142 | 0.0372 | 0.00907 | 0.0354 | 0.0254 | 0.015
COc1cc(Nc2c(C#N)cnc3cc(OCCCN4CCN(C)CC4)c(OC)cc23)c(Cl)cc1Cl [Bosutinib] | 3.31 | 3.2 | 3.33 | 3.25 | 2.95 | 2.41 | 3.43 | 1.41 | 1.7 | 1.49 | 1.14 | 2.59 | 1.27 | 1.6 | 1.46
Nc1nc(Cl)nc2c1ncn2[C@@H]1O[C@H](CO)[C@@H](O)[C@@H]1F [Clofarabine] | 0.311 | 1.94 | 0.323 | 0.337 | 0.585 | 0.814 | 0.387 | 0.817 | 0.289 | 0.374 | 0.207 | 0.331 | 0.301 | 0.161 | 0.744
O=[N+]([O-])c1ccc2c(c1)S(=O)(=O)C=C2 [Stattic] | 2.87 | 15.9 | 2.45 | 7.9 | 2.27 | 4.72 | 1.39 | 9.57 | 1.88 | 4.99 | 3.04 | 1.74 | 2.99 | 1.42 | 2.41
COc1cc([C@@H]2c3cc4c(cc3[C@@H](O[C@@H]3O[C@@H]5CO[C@@H](c6cccs6)O[C@H]5[C@H](O)[C@H]3O)[C@H]3COC(=O)[C@H]23)OCO4)cc(OC)c1O [Teniposide] | 3.01 | 1.41 | 1.15 | 1.43 | 0.266 | 0.219 | 1.24 | 0.314 | 0.0688 | 0.112 | 0.0885 | 0.0501 | 0.227 | 0.482 | 0.193
CC(=O)[C@]1(O)Cc2c(O)c3c(c(O)c2[C@@H](O[C@H]2C[C@H](N)[C@H](O)[C@H](C)O2)C1)C(=O)c1ccccc1C3=O [Idarubicin] | 0.162 | 0.0541 | 0.107 | 0.204 | 0.0108 | 0.027 | 0.103 | 0.0256 | 0.0197 | 0.00947 | 0.0226 | 0.00854 | 0.0144 | 0.0397 | 0.0249

Source: the supplement of paper PMC5579334
